Our source for the DC50 and IC50 values is patent US12522623B2, “Small molecule STAT protein degraders” (THE REGENTS OF THE UNIVERSITY OF MICHIGAN, priority 2020, dated 2026).

Broadly, the IC50 is the concentration at which inhibition is half-maximal.

Where only a bound is given, the exact number is not on record here.

Common to all, as to assay type: cell-based
The target in one assay is T1, STAT1 (Homo sapiens, UniProt P42224).
T1 construct: endogenous in cells; host or cells: MOLM-16 (acute leukemia cells)
T1 sequence (P42224 1-750): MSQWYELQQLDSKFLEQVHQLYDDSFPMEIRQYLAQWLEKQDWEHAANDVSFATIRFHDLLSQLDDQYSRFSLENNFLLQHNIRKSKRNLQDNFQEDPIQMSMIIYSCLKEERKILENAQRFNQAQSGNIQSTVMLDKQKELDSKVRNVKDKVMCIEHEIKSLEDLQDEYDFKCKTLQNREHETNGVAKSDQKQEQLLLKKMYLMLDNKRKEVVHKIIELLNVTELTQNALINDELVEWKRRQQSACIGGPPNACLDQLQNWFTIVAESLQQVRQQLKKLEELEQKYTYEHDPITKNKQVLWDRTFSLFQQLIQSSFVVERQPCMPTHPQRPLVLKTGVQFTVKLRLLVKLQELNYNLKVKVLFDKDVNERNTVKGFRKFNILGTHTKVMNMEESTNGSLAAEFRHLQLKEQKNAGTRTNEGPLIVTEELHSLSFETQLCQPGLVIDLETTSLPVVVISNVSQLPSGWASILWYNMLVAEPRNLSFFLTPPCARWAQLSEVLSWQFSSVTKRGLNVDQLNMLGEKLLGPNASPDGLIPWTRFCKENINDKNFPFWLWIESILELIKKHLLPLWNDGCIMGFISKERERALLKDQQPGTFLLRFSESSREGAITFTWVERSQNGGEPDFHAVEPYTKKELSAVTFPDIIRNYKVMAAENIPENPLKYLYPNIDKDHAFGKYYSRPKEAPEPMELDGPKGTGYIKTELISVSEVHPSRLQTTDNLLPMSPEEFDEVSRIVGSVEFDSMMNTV
In words: Fluorescent immunoblotting of STAT1 protein in MOLM-16 cells (estimated DC50). To be noted: MOLM-16, 4 h. The method, then:
(§1) In vitro cultured cells or xenograft tumors were lysed 1×Cell Lysis Buffer (Cell Signaling Technology, #9803), resolved by SDS-PAGE NuPAGE gel (Thermo Fisher Scientific), and transferred to a PVDF membrane (Bio Rad). For chemiluminescence immunoblotting, membranes were blocked for 1 h using 5% Blotting-Grade Blocker (#1706404, Bio Rad) in 1×Tris-buffered saline with Tween 20 (TBST, Pierce). Antibodies used were: rabbit mAbs for STAT3 (Cell Signaling Technology, #4368, #12640) and p-STAT3 (Y705) (Cell Signaling Technology, #9245, #52075). HRP conjugated goat anti-rabbit IgG (H+L) (#A27036) secondary antibodies was from Thermo Fisher Scientific. GAPDH (Santa Cruz Technology, sc-47724HRP) and actin (Santa Cruz Technology, sc-8432HRP, sc-47778HRP) were loading controls. For fluorescent immunoblotting, membranes were blocked using Odyssey TBS Blocker Buffer (LI-COR). IRDye 680RD and 800CW Dye-labeled secondary antibodies (LI-COR) were used. The washed membranes were scanned using Odyssey CLx imager (LI-COR). The intensity of Western blot signaling was quantitated using the Odyssey software or Image Studio V5.2 (LI-COR).

A further assay has as its target T2, STAT3 (Homo sapiens, UniProt P40763).
T2 construct: endogenous in cells; host or cells: MOLM-16 (acute leukemia cells)
In words: Fluorescent immunoblotting of STAT3 protein in MOLM-16 cells (estimated DC50). To be noted: MOLM-16, 4 h. The method, then:
as §1

For another assay, the system named is MOLM-16 cells. In words: Cell growth inhibition, 4-day proliferation assay (CellTiter-Glo). To be noted: MOLM16, 96 h; MOLM-16, 4 days. The method, then: The effect of representative Compounds of the Disclosure on cell viability was determined in a 4-day proliferation assay. Cells were maintained in the appropriate culture medium at 37° C. and an atmosphere of 5% CO2. All the cell lines were used within three months of thawing fresh vials. Cells were seeded in 384-well white plates (Corning Costar) at a density of 2,000 cells/well in 25 μl of culture medium. Compounds were serially diluted in the appropriate medium, and 25 μl of the diluted compounds were added to the cells. After the addition of compounds, the cells were incubated at 37° C. in an atmosphere of 5% CO2 for 4 days. Cell viability was determined using the CellTiter-Glo® Luminescent Cell Viability Assay Kit (Promega, Madison, WI) according to the manufacturers' instructions. Essentially, 50 μl of CellTiter-Glo® Reagent was added to each well, and then the plates were incubated at room temperature for 20 minutes. The luminescent signal was measured using a Tecan multimode microplate reader (Tecan, Morrisville, NC). The readings were normalized to the DMSO-treated cells and the IC50 was calculated by nonlinear regression (four parameters sigmoid fitted with variable slope, least squares fit, and no constraint) analysis using the GraphPad Prism software.

T2 sequence (P40763 whole entry): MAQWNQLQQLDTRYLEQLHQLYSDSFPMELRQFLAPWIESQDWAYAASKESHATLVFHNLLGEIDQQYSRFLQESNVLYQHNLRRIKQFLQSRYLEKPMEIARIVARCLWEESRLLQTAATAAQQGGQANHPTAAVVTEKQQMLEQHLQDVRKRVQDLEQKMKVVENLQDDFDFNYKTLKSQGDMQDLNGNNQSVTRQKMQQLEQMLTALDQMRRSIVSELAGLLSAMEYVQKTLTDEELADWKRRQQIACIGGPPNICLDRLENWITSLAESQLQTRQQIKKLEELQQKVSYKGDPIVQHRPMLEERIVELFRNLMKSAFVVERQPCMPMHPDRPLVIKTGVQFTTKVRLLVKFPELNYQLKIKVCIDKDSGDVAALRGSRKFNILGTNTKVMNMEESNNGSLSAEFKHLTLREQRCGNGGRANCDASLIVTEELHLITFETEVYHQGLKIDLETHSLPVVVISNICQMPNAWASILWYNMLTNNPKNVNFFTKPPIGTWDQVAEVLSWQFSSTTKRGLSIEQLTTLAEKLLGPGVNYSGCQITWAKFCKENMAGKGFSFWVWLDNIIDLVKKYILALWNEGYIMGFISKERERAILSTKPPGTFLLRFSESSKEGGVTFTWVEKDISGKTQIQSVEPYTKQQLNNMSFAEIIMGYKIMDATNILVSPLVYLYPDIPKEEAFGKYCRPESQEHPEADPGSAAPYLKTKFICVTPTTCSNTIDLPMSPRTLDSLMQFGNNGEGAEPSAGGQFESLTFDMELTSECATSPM

As to `CCN1CC[C@H]2CC[C@@H](C(=O)N[C@@H](CCS(C)(=O)=O)C(=O)N[C@@H](Cc3ccc(C(C)(C)C)cc3)C(=O)N3CCC(CCC#Cc4cccc5c4CN(C4CCC(=O)NC4=O)C5=O)CC3)N2C(=O)[C@@H](NC(=O)c2cc3cc(C(F)(F)P(=O)(O)O)ccc3s2)C1` (stereo partly drawn) [Cpd. No. 18, ((2-(((5S,8S,10aR)-8-(((2S)-1-(((2S)-3-(4-(tert-butyl)phenyl)-1-(4-(4-(2-(2,6-dioxopiperidin-3-yl)-1-oxoisoindolin-4-yl)but-3-yn-1-yl)piperidin-1-yl)-1-oxopropan-2-yl)amino)-4-(methylsulfonyl)-1-oxobutan-2-yl)carbamoyl)-3-ethyl-6-oxodecahydropyrrolo[1,2-a][1,5]diazocin-5-yl)carbamoyl)benzo[b]thiophen-5-yl)difluoromethyl)phosphonic acid], the DC50 at STAT1 is greater than 1000 nM; on STAT3, less than 250 nM.

As for `CCN1CC[C@H]2CC[C@@H](C(=O)N[C@@H](CCn3ccnc3N)C(=O)N[C@@H](Cc3ccc(C(C)(C)C)cc3)C(=O)N3CCC(CCC#Cc4cccc5c4CN(C4CCC(=O)NC4=O)C5=O)CC3)N2C(=O)[C@@H](NC(=O)c2cc3cc(C(F)(F)P(=O)(O)O)ccc3s2)C1` (stereo partly drawn) [Cpd. No. 22, ((2-(((5S,8S,10aR)-8-(((2S)-4-(2-amino-1H-imidazol-1-yl)-1-(((2S)-3-(4-(tert-butyl)phenyl)-1-(4-(4-(2-(2,6-dioxopiperidin-3-yl)-1-oxoisoindolin-4-yl)but-3-yn-1-yl)piperidin-1-yl)-1-oxopropan-2-yl)amino)-1-oxobutan-2-yl)carbamoyl)-3-ethyl-6-oxodecahydropyrrolo[1,2-a][1,5]diazocin-5-yl)carbamoyl)benzo[b]thiophen-5-yl)difluoromethyl)phosphonic acid], the DC50 on STAT1 and on STAT3 was greater than 1000 nM in each case.

With `CCN1CC[C@H]2CC[C@@H](C(=O)N[C@@H](CCn3ccnc3[N+](=O)[O-])C(=O)N[C@@H](Cc3ccc(C(C)(C)C)cc3)C(=O)N3CCC(CCC#Cc4cccc5c4CN(C4CCC(=O)NC4=O)C5=O)CC3)N2C(=O)[C@@H](NC(=O)c2cc3cc(C(F)(F)P(=O)(O)O)ccc3s2)C1` (stereo partly drawn) [Cpd. No. 21, ((2-(((5S,8S,10aR)-8-(((2S)-1-(((2S)-3-(4-(tert-butyl)phenyl)-1-(4-(4-(2-(2,6-dioxopiperidin-3-yl)-1-oxoisoindolin-4-yl)but-3-yn-1-yl)piperidin-1-yl)-1-oxopropan-2-yl)amino)-4-(2-nitro-1H-imidazol-1-yl)-1-oxobutan-2-yl)carbamoyl)-3-ethyl-6-oxodecahydropyrrolo[1,2-a][1,5]diazocin-5-yl)carbamoyl)benzo[b]thiophen-5-yl)difluoromethyl)phosphonic acid], the DC50 at STAT1 and at STAT3 was greater than 1000 nM throughout.

For the compound `CCN1CC[C@H]2CC[C@@H](C(=O)N[C@@H](CCS(N)(=O)=O)C(=O)N[C@@H](Cc3ccc(C(C)(C)C)cc3)C(=O)N3CCC(CCC#Cc4cccc5c4CN(C4CCC(=O)NC4=O)C5=O)CC3)N2C(=O)[C@@H](NC(=O)c2cc3cc(C(F)(F)P(=O)(O)O)ccc3s2)C1` (stereo partly drawn) [Cpd. No. 20, ((2-(((5S,8S,10aR)-8-(((2S)-1-(((2S)-3-(4-(tert-butyl)phenyl)-1-(4-(4-(2-(2,6-dioxopiperidin-3-yl)-1-oxoisoindolin-4-yl)but-3-yn-1-yl)piperidin-1-yl)-1-oxopropan-2-yl)amino)-1-oxo-4-sulfamoylbutan-2-yl)carbamoyl)-3-ethyl-6-oxodecahydropyrrolo[1,2-a][1,5]diazocin-5-yl)carbamoyl)benzo[b]thiophen-5-yl)difluoromethyl)phosphonic acid], the DC50 at STAT1 is greater than 1000 nM; on STAT3 it was less than 250 nM.

Regarding `COC(=O)N1CC[C@H]2CC[C@@H](C(=O)N[C@@H](CCCN)C(=O)N[C@@H](Cc3ccc(C(C)(C)C)cc3)C(=O)N3CCC(CCC#Cc4cccc5c4CN(C4CCC(=O)NC4=O)C5=O)CC3)N2C(=O)[C@@H](NC(=O)c2cc3cc(C(F)(F)P(=O)(O)O)ccc3s2)C1` (stereo partly drawn) [Cpd. No. 1, ((2-(((5S,8S,10aR)-8-(((2S)-5-amino-1-(((2S)-3-(4-(tert-butyl)phenyl)-1-(4-(4-(2-(2,6-dioxopiperidin-3-yl)-1-oxoisoindolin-4-yl)but-3-yn-1-yl)piperidin-1-yl)-1-oxopropan-2-yl)amino)-1-oxopentan-2-yl)carbamoyl)-3-(methoxycarbonyl)-6-oxodecahydropyrrolo[1,2-a][1,5]diazocin-5-yl)carbamoyl)benzo[b]thiophen-5-yl)difluoromethyl)phosphonic acid], the DC50 was greater than 1000 nM on STAT1 and 1000 nM on STAT3.

Take `NC(=O)CC[C@H](NC(=O)[C@@H]1CC[C@@H]2CCN(C(=O)CCCCCC#Cc3cccc4c3CN(C3CCC(=O)NC3=O)C4=O)C[C@H](NC(=O)c3cc4cc(C(F)(F)P(=O)(O)O)ccc4s3)C(=O)N21)c1ncc(Cc2ccccc2)s1` (stereo partly drawn) [Cpd. No. 5, ((2-(((5S,8S,10aR)-8-(((S)-4-amino-1-(5-benzylthiazol-2-yl)-4-oxobutyl)carbamoyl)-3-(8-(2-(2,6-dioxopiperidin-3-yl)-1-oxoisoindolin-4-yl)oct-7-ynoyl)-6-oxodecahydropyrrolo[1,2-a][1,5]diazocin-5-yl)carbamoyl)benzo[b]thiophen-5-yl)difluoromethyl)phosphonic acid]: the DC50 on STAT3 was 100 nM. Also, half-maximal inhibition in the assay on MOLM-16 cells (IC50) required 49 nM.

Take `NC(=O)CC[C@H](NC(=O)[C@@H]1CC[C@@H]2CCN(C(=O)CCCCCC#Cc3cccc4c3CN(C3CCC(=O)NC3=O)C4=O)C[C@H](NC(=O)c3cc4cc(C(F)(F)P(=O)(O)O)ccc4s3)C(=O)N21)c1nc2c(s1)Cc1ccccc1-2` (stereo partly drawn) [Cpd. No. 6, ((2-(((5S,8S,10aR)-8-(((S)-4-amino-1-(8H-indeno[1,2-d]thiazol-2-yl)-4-oxobutyl)carbamoyl)-3-(8-(2-(2,6-dioxopiperidin-3-yl)-1-oxoisoindolin-4-yl)oct-7-ynoyl)-6-oxodecahydropyrrolo[1,2-a][1,5]diazocin-5-yl)carbamoyl)benzo[b]thiophen-5-yl)difluoromethyl)phosphonic acid]: the DC50 at STAT3 is 100 nM. This compound had a half-inhibitory concentration (IC50) in the assay with MOLM-16 cells of 64 nM.

Turning to `CCN1CC[C@H]2CC[C@@H](C(=O)N[C@@H](CCn3ccnc3)C(=O)N[C@@H](Cc3ccc(C(C)(C)C)cc3)C(=O)N3CCC(CCC#Cc4cccc5c4CN(C4CCC(=O)NC4=O)C5=O)CC3)N2C(=O)[C@@H](NC(=O)c2cc3cc(C(F)(F)P(=O)(O)O)ccc3s2)C1` (stereo partly drawn) [Cpd. No. 19], the values for the DC50 on STAT1 and at STAT3 were greater than 1000 nM and 250 nM, respectively.

For `NC(=O)CC[C@H](NC(=O)[C@@H]1CC[C@@H]2CCN(C(=O)CCCCCC#Cc3cccc4c3CN(C3CCC(=O)NC3=O)C4=O)C[C@H](NC(=O)c3cc4cc(C(F)(F)P(=O)(O)O)ccc4s3)C(=O)N21)c1ncc(-c2ccc(F)cc2)s1` (stereo partly drawn) [Cpd. No. 9, ((2-(((5S,8S,10aR)-8-(((S)-4-amino-1-(5-(4-fluorophenyl)thiazol-2-yl)-4-oxobutyl)carbamoyl)-3-(8-(2-(2,6-dioxopiperidin-3-yl)-1-oxoisoindolin-4-yl)oct-7-ynoyl)-6-oxodecahydropyrrolo[1,2-a][1,5]diazocin-5-yl)carbamoyl)benzo[b]thiophen-5-yl)difluoromethyl)phosphonic acid], the DC50 on STAT3 was 50 nM. In the assay with MOLM-16 cells, this compound returned an IC50 of 60 nM.
